A word on the IC50: it is the midpoint of a concentration-inhibition curve.

The subject of assay [1] is HCV replicon (BB7 sequence) in Huh-7-Clone A cells. Kind of assay: HCV replicon assay: ELISA of NS5A protein in replicon-containing cells (Inhibition of Viral RNA Replication). It is filed as cell-based. The note with it: Hepatitis C virus, read-out: Replicon. A digest of the protocol:
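EC50 taken from an 8-point serially diluted dose curve, with NS5A level as read-out: fixed cells probed with primary monoclonal and HRP-conjugated secondary, TMB developed 30 min, OD 650 nm. Compound exposure 72 h in Huh-7-Clone A replicon cells (BB7 sequence).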
On the technique in general: Replicon systems follow genome replication, usually without infectious particles.

For a further assay, the target named is T1, HCV NS5B (Hepatitis C virus genotype 1b, UniProt Q9WMX2).
T1 construct: fusion protein, of which the carboxyl terminal 21 amino acids were removed to enhance its solubility; His tag (GSHHHHHH); made in house; host or cells: E. coli
Kind of assay: Inhibition of viral RNA-dependent RNA polymerase (RdRp), in vitro biochemical assay. Conditions: read-out: HCV pol-BB7 IC50. Details: species or system HCV genotype 1b virus (BB7). A digest of the protocol: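 IC50 values are the concentrations that halve in vitro RNA synthesis by HCV NS5B polymerase. The enzyme was a C-terminally truncated (Δ21), His-tagged genotype 1b (BB7 consensus) protein purified from E. coli.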

Setting [2] is: ranges of EC50 in HCV replicon assay.
[3] abbreviates: HCV replicon assay, ranges of EC50.
Setting [4] is: HCV NS5B RdRp, BB7, class symbols A-D.
Setting [5] is: Huh-7-Clone A, NS5A ELISA, 72-hour incubation, ranges of EC50.
Where [6] appears, read: purified His-tagged NS5B (BB7), carboxyl terminal 21 amino acids removed.
The mark [7] stands for this setting: HCV NS5B RdRp, BB7, activity class.
Setting [8] is: HCV replicon assay, ranges of 50% effective concentration (EC50).
The mark [9] stands for this setting: HCV NS5B polymerase, BB7 (genotype 1b), values given as range classes A-D.
The mark [10] stands for this setting: HCV NS5B RdRp, BB7, reported as range class.

Read-outs that look alike come from different tables or passages of the source.

As to `CNC(=O)c1c(-c2ccc(F)cc2)oc2cc(N3CCOCC3)c(OCc3ccccc3)cc12` [Example 117, 5-Benzyloxy-2-(4-fluoro-phenyl)-6-morpholin-4-yl-benzofuran-3-carboxylic acid methylamide], the EC50 in assay [1] (setting [2]) was < 1000 nM. Besides, the 50% inhibitory concentration (IC50) at HCV NS5B (HCV NS5B RdRp, BB7 genotype 1b) is ≤ 500 nM.
For `CNC(=O)c1c(-c2ccc(F)cc2)oc2cc(N(Cc3c(C)noc3C)S(C)(=O)=O)c(OC(C)C)cc12` [Example 284, 6-[(3,5-Dimethyl-isoxazol-4-ylmethyl)-methanesulfonyl-amino]-2-(4-fluoro-phenyl)-5-isopropoxy-benzofuran-3-carboxylic acid methylamide], the EC50 in assay [1] (setting [3]) is < 10000 nM. Further, on HCV NS5B (setting [4]), the 50% inhibitory concentration (IC50) is ≤ 500 nM.
In the case of `CNC(=O)c1c(-c2cccc(C(F)(F)F)c2)oc2ccc(OC)cc12` [Example 55, 5-Methoxy-2-(3-trifluoromethyl-phenyl)-benzofuran-3-carboxylic acid methylamide], the EC50 in assay [1] (setting [5]) is < 30000 nM. Further, the IC50 on HCV NS5B (setting [6]) was in the range of 500 to 5000 nM.
As for `CNC(=O)c1c(-c2ccc(F)cc2)oc2cc(C)c(OC(C)C)cc12` [Example 79, 2-(4-Fluoro-phenyl)-5-isopropoxy-6-methyl-benzofuran-3-carboxylic acid methylamide], the EC50 in assay [1] (setting [5]) is < 10000 nM. For the same compound, the IC50 at HCV NS5B (setting [6]) was ≤ 500 nM.
For the compound `CNC(=O)c1c(-c2ccc(F)cc2)oc2cc(N(C)S(C)(=O)=O)c(OCC3CC3)cc12` [Example 351, 5-Cyclopropylmethoxy-2-(4-fluoro-phenyl)-6-(methanesulfonyl-methyl-amino)-benzofuran-3-carboxylic acid methylamide], the EC50 in assay [1] (setting [3]) was < 1000 nM. Moreover, at HCV NS5B (setting [7]), the IC50 is ≤ 500 nM.
With `CNC(=O)c1c(-c2ccc(F)cc2)oc2cc(N(C)S(C)(=O)=O)c(OCC(=O)OC(C)(C)C)cc12` [Example 382, [2-(4-Fluoro-phenyl)-6-(methanesulfonyl-methyl-amino)-3-methylcarbamoyl-benzofuran-5-yloxy]-acetic acid tert-butyl ester], the EC50 in assay [1] (setting [8]) is < 1000 nM. For the same compound, the IC50 at HCV NS5B (setting [9]) is ≤ 500 nM.
For the compound `CNC(=O)c1c(-c2ccc(F)cc2)oc2cc(N3CCCC(O)C3)c(OC(C)C)cc12` (centres unmarked) [Example 141, 2-(4-Fluoro-phenyl)-6-(3-hydroxy-piperidin-1-yl)-5-isopropoxy-benzofuran-3-carboxylic acid methylamide], the EC50 in assay [1] (setting [2]) is < 10000 nM. In addition, on HCV NS5B (HCV NS5B RdRp, BB7 genotype 1b), the half-inhibitory concentration (IC50) is 500 to 5000 nM.
Consider `CNC(=O)c1c(-c2ccc(F)cc2)oc2cc(N(CC(C)O)S(C)(=O)=O)c(OC(C)C)cc12` (centres unmarked) [Example 253, 2-(4-Fluoro-phenyl)-6-[(2-hydroxy-propyl)-methanesulfonyl-amino]-5-isopropoxy-benzofuran-3-carboxylic acid methylamide], for which the EC50 in assay [1] (setting [3]) was < 1000 nM. Moreover, on HCV NS5B (setting [4]), the IC50 is ≤ 500 nM.
Turning to `CNC(=O)c1c(-c2ccc(F)cc2)oc2cc(N3CCOCC3)c(OCc3noc(-c4ccc(OC)cc4)n3)cc12` [Example 214, 2-(4-Fluoro-phenyl)-5-[5-(4-methoxy-phenyl)-[1,2,4]oxadiazol-3-ylmethoxy]-6-morpholin-4-yl-benzofuran-3-carboxylic acid methylamide], the EC50 in assay [1] (HCV replicon, range of EC50) is < 1000 nM. For the same compound, the half-maximal inhibitory concentration (IC50) at HCV NS5B (setting [10]) lay within 500 to 5000 nM.
Take `CNC(=O)c1c(-c2ccc(F)cc2)oc2cc(N3CCOCC3)c(OCc3nnnn3C)cc12` [Example 209, 2-(4-Fluoro-phenyl)-5-(1-methyl-1H-tetrazol-5-ylmethoxy)-6-morpholin-4-yl-benzofuran-3-carboxylic acid methylamide]: in assay [1] (HCV replicon, range of EC50), the EC50 was < 10000 nM. Besides, on HCV NS5B (setting [10]), the concentration for half-maximal inhibition (IC50) fell in the range of 500 to 5000 nM.
On to `CNC(=O)c1c(-c2ccc(F)cc2)oc2cc(-c3cc(C4CC4)no3)c(OC(C)C)cc12` [Example 241, 6-(3-Cyclopropyl-isoxazol-5-yl)-2-(4-fluoro-phenyl)-5-isopropoxy-benzofuran-3-carboxylic acid methylamide], for which, in assay [1] (HCV replicon, range of EC50), the EC50 is < 10000 nM. Besides, the concentration for half-maximal inhibition (IC50) on HCV NS5B (setting [10]) was in the range of 500 to 5000 nM.
With `CNC(=O)c1c(-c2ccc(F)cc2)oc2cc(N(C)S(C)(=O)=O)c(OCc3nn(C)cc3Cl)cc12` [Example 403, 5-(4-Chloro-1-methyl-1H-pyrazol-3-ylmethoxy)-2-(4-fluoro-phenyl)-6-(methanesulfonyl-methyl-amino)-benzofuran-3-carboxylic acid methylamide], the EC50 in assay [1] (setting [8]) was < 1000 nM. Moreover, the IC50 on HCV NS5B (setting [9]) was ≤ 500 nM.
Take `CNC(=O)c1c(-c2ccc(F)cc2)oc2cc(N(Cc3ccc(OC)cc3)S(C)(=O)=O)c(OC(C)C)cc12` [Example 281, 2-(4-Fluoro-phenyl)-5-isopropoxy-6-[methanesulfonyl-(4-methoxy-benzyl)-amino]-benzofuran-3-carboxylic acid methylamide]: the EC50 in assay [1] (setting [3]) was < 1000 nM. The IC50 at HCV NS5B (setting [4]) was ≤ 500 nM.
In the case of `CNC(=O)c1c(-c2ccc(F)cc2)oc2cc(N(C)S(C)(=O)=O)c(OCc3ccc(C(=O)O)cc3)cc12` [Example 311, 4-[2-(4-Fluoro-phenyl)-6-(methanesulfonyl-methyl-amino)-3-methylcarbamoyl-benzofuran-5-yloxymethyl]-benzoic acid], in assay [1] (setting [3]), the EC50 was < 10000 nM. The concentration for half-maximal inhibition (IC50) at HCV NS5B (setting [4]) was ≤ 500 nM.
Turning to `CNC(=O)c1c(-c2ccc(F)cc2)oc2cc(OCc3ccccc3)c(OCc3ccccc3)cc12` [Example 183, 5,6-Bis-benzyloxy-2-(4-fluoro-phenyl)-benzofuran-3-carboxylic acid methylamide], in assay [1] (HCV replicon, range of EC50), the EC50 is < 10000 nM. The IC50 on HCV NS5B (setting [10]) is > 30000 nM.
As to `CNC(=O)c1c(-c2ccc(F)cc2)oc2cc(N(CC(=O)O)S(C)(=O)=O)c(OC(C)C)cc12` [Example 189, {[2-(4-Fluoro-phenyl)-5-isopropoxy-3-methylcarbamoyl-benzofuran-6-yl]-methanesulfonyl-amino}-acetic acid], the EC50 in assay [1] (HCV replicon, range of EC50) is < 1000 nM. The IC50 at HCV NS5B (setting [10]) was 500 to 5000 nM.
For the compound `CNC(=O)c1c(-c2ccc(F)cc2)oc2cc(NS(C)(=O)=O)c(OC(C)C)cc12` [Example 21, 2-(4-Fluoro-phenyl)-5-isopropoxy-6-methanesulfonylamino-benzofuran-3-carboxylic acid methylamide], in assay [1] (setting [5]), the EC50 was < 1000 nM. For the same compound, the half-inhibitory concentration (IC50) at HCV NS5B (setting [6]) was ≤ 500 nM.
Consider `CNC(=O)c1c(-c2ccc(F)cc2)oc2cc(C3CCCN3)c(OC(C)C)cc12` (centres unmarked) [Example 265, 2-(4-Fluoro-phenyl)-5-isopropoxy-6-pyrrolidin-2-yl-benzofuran-3-carboxylic acid methylamide], for which, in assay [1] (setting [3]), the EC50 is > 30000 nM. In addition, at HCV NS5B (setting [4]), the concentration for half-maximal inhibition (IC50) lay in the range of 5000 to 30000 nM.
Turning to `CNC(=O)c1c(-c2ccc(F)cc2)oc2cc(N3CCOCC3)c(OC(C)C)cc12` [Example 24, 2-(4-Fluoro-phenyl)-5-isopropoxy-6-morpholin-4-yl-benzofuran-3-carboxylic acid methylamide], the EC50 in assay [1] (setting [5]) is < 1000 nM. Also, at HCV NS5B (setting [6]), the IC50 is ≤ 500 nM.
In the same order, the values of `CNC(=O)c1c(-c2ccncc2)oc2ccc(OC(C)C)cc12` [Example 27, 5-Isopropoxy-2-pyridin-4-yl-benzofuran-3-carboxylic acid methylamide] are > 30000 nM and 5000 to 30000 nM.
As to `CNC(=O)c1c(-c2ccc(F)cc2)oc2cc(NCc3ccoc3)c(OC(C)C)cc12` [Example 112, 2-(4-Fluoro-phenyl)-6-[(furan-3-ylmethyl)-amino]-5-isopropoxy-benzofuran-3-carboxylic acid methylamide], the EC50 in assay [1] (setting [2]) is < 1000 nM. Also, the IC50 on HCV NS5B (HCV NS5B RdRp, BB7 genotype 1b) is ≤ 500 nM.
With `CNC(=O)c1c(-c2ccc(F)cc2)oc2cc(N(Cc3ccccc3)S(C)(=O)=O)c(OC(C)C)cc12` [Example 361, 6-(Benzyl-methanesulfonyl-amino)-2-(4-fluoro-phenyl)-5-isopropoxy-benzofuran-3-carboxylic acid methylamide], the EC50 in assay [1] (setting [3]) is < 1000 nM. For the same compound, at HCV NS5B (setting [7]), the IC50 was ≤ 500 nM.
On to `CNC(=O)c1c(-c2ccc(F)cc2)oc2cc(N(C)S(C)(=O)=O)c(OCc3nccn3C)cc12` [Example 398, 2-(4-Fluoro-phenyl)-6-(methanesulfonyl-methyl-amino)-5-(1-methyl-1H-imidazol-2-ylmethoxy)-benzofuran-3-carboxylic acid methylamide], for which the EC50 in assay [1] (setting [8]) is < 1000 nM. The IC50 on HCV NS5B (setting [9]) was ≤ 500 nM.
Regarding `C=CCOc1cc2c(C(=O)NC)c(-c3ccc(F)cc3)oc2cc1N(CC=C)S(C)(=O)=O` [Example 288, 6-(Allyl-methanesulfonyl-amino)-5-allyloxy-2-(4-fluoro-phenyl)-benzofuran-3-carboxylic acid methylamide], in assay [1] (setting [3]), the EC50 was < 1000 nM. Further, the IC50 on HCV NS5B (setting [4]) was ≤ 500 nM.
Consider `CNC(=O)c1c(-c2ccc(F)cc2)oc2cc(N(C)S(C)(=O)=O)c(OCc3cc(OC)cc(OC)c3)cc12` [Example 352, 5-(3,5-Dimethoxy-benzyloxy)-2-(4-fluoro-phenyl)-6-(methanesulfonyl-methyl-amino)-benzofuran-3-carboxylic acid methylamide], for which, in assay [1] (setting [3]), the EC50 is < 1000 nM. Also, at HCV NS5B (setting [7]), the IC50 was ≤ 500 nM.

(Values after patent US7265152B2 (ViroPharma Incorporated, priority 2002, dated 2007).)
